Read-outs that look alike come from different tables or passages of the source.
Key:
porcine megalin [1] = target: T1, porcine megalin (Sus scrofa, UniProt C0HL13); test: Surface plasmon resonance: competition for TC:B12 binding to chip-immobilized megalin; conditions: for IC50: 10 µg/ml TC:B12 in 0 to 100 mM amino-acid, Biacore; for SPR signal of amino-acid alone on megalin chip: chips exposed to increasing concentrations of amino-acid, no analyte
Procedure: (§1) To directly address whether supra-physiological concentrations of dibasic amino-acids (dAAs) can interfere with binding of protein ligands to megalin, we used surface plasmon resonance. Sensor chips were derivatized with porcine megalin at high density. […] After flushing, chips were incubated with 10 µg/ml of three analytes: the megalin chaperone, RAP (receptor-associated protein), as positive control (not shown), or two physiological megalin ligands: transcobalamine:cobalamine complexes (TC:B12; Fig. 1; sensorgrams shown at Supplemental Fig. 1a) or lysozyme (Supplemental Fig. 1b), diluted in 0 to 100 mM of the same amino-acids in buffer. […] The supraphysiological range for effective competition in vitro defined the necessary increment in urinary concentration from dietary supplementation for significant competition in vivo.
Figure 1 Acellular assay: direct competition for transcobalamine:cobalamine binding to megalin immobilized on Biacore sensor chips. Signals of sensorgrams (shown in Supplemental Fig. 1) were normalized to control signal without AA supplementation, taken as the unity, and are means ± SEM of at least four independent technical duplicate values at each of the indicated amino-acid-concentrations.
(§2) Surface plasmon resonance (SPR) analysis of the binding to chip-immobilized megalin of receptor-associated protein (RAP), transcobalamine:cobalamine complex (TC:B12) and lysozyme was carried out using a Biacore T200 instrument (Uppsala, Sweden). The sensor chips (type CM5) were activated with a 1:1 mixture of 0.2 M N-ethyl-N′-(3-dimethylaminopropyl) carbodiimide and 0.05 M N-hydroxysuccinimide in H2O. Porcine megalin[49] was immobilized on the chip in 10 mM sodium acetate, pH 4.0, and the remaining binding sites were blocked with 1 M ethanolamine, pH 8.5. The SPR signal generated from immobilized megalin were obtained with a density of 4.5 fmol protein/mm^2.
(§3) Human RAP was produced as recombinant protein in E. coli[50] and used to validate the sensor chip. TC was purified and complexed with B12 as described (TC/B12)[50],[51]. Human recombinant lysozyme was purchased from Sigma-Aldrich (expressed in rice, # L1667). Sensorgrams were generated using each of these three ligands at 10 µg/ml in a running buffer consisting of 10 mM Hepes, 150 mM NaCl, 4 mM CaCl2 and 0.05% Tween 20, pH 7.4. The flow cells were regenerated with 1 M ethanolamine pH 9.0. Analyte testing was performed as a dual injection starting with running buffer supplemented with the defined concentrations of amino acids followed by injection of analyte in the same solution. The pH of all buffers was adjusted after amino acids addition. All binding experiments were made as at least independent triplicate of technical duplicates and data were analyzed using the Biacore T200 evaluation software version 3.1.

[2] = Tolerance of prolonged 5x-dAA diets in mice; conditions: ad libitum 5x-supplemented solid diet, approx. 45 mmoles/kg/day
Excerpt: Ctns knockout mice (C57BL/6 background) were kindly provided by Dr. Corinne Antignac[18]. […] The same increase was set for L- (and D-) lysine.

[3] = Urinary and serum amino-acid concentration by mass spectrometry in Ctns KO mice; format: in vivo
Procedure: (§4) Body weight was recorded before entering the metabolic cages. […] Creatinine clearance was normalized by mouse body weight.
Quantitative analysis of underivatized amino-acids in serum and urine samples was performed using the Amino Acids LC–MS/MS analysis Kit Jasem®. […] Equipment was controlled and data were analyzed using MassHunter Workstation (Agilent Technologies). The assay was validated for selectivity, specificity, linearity and limit of quantification, accuracy and precision, matrix effects and recovery, and stability.

Ctns KO mice kidneys = test: Kidney cystine content in Ctns KO mice; format: in vivo; conditions: diet from 6-to-8 months-of-age
Procedure: For this pilot study, we selected tissue accumulation of cystine as a clear and measurable outcome to quantify long-term interference of dAAs with the endocytic supply of disulfide-rich plasma proteins to kidney PTCs.
(§5) Mice were euthanized by cabon dioxide (CO2) inhalation. Dissected tissues were homogenized in 10 mM N-ethylmaleimide. Protein fraction was obtained after precipitation in 10% 5-sulfosalicylic acid and centrifugation at 20,000g for 20 min at 4 °C. Protein pellet was resuspended in 100 mM NaOH and assayed by the Bio-Rad Protein Assay according to manufacturer’s instructions. Supernatant (50 μl) was mixed with 50 μL of the internal standard solution (Cystine d6) and vortexed for 5 s; then the mixture was extracted with 200 μl of acetonitrile, vortexed for at least 30 s, then centrifuged at 13,000 rpm for 9 min. Liquid chromatography and mass spectrometry analysis was performed by a UHPLC Agilent 1290 Infinity II 6470 (Agilent Technologies) equipped with an ESI-JET-STREAM source operating in the positive ion (ESI +) mode. Equipment was controlled and data were analyzed using MassHunter Workstation (Agilent Technologies). The separation column was InfinityLab Poroshell 120 HILIC 1.9 μm 100 × 2.1 mm (Agilent Technologies). Validation of the method was performed basing on the US Food and Drug Administration (FDA) guideline for industry bioanalytical method validation (FDA 2013) and European Medicines Agency (EMA) guideline (EMA 2011). The assay was validated for selectivity, specificity, linearity and limit of quantification, accuracy and precision, matrix effects and recovery, and stability.

megalin pathway [4] = test: LMW proteinuria / albuminuria in Ctns KO mice under 5x-dAA diets
Procedure: After 24-h adaptation in metabolic cages, urine was collected during the following 24 h in presence of 0.1% sodium azide and 1x-protease inhibitors (Thermo Scientific). When in metabolic cages, mice had free access to tap water and food. Blood was collected 2 days before starting the treatments and entry into metabolic cages (baseline) and at the sacrifice to obtain serum. Body weight was recorded before entering the metabolic cages. Urine and serum analyses were performed by the veterinary laboratory Appialab Srl (Rome, Italy). Urinary levels of CC16 were measured by the Mouse Clara Cell Protein 16 kit 96 T #EKU03200 (Biomatik) according to manufacturer’s instructions. Serum levels of cystatin-C were measured by the Mouse/Rat Cystatin C Quantitative ELISA #MSCTC0 (R&D Systems). […] Creatinine clearance was normalized by mouse body weight.

megalin pathway [5] = test: LMW proteinuria (urinary CC16) in WT mice under 5x-dAA diets; format: in vivo; conditions: WT C57Bl-6 mice, 3 weeks diet, vs control diet
Procedure: In a second experiment, 5x-D-lysine was compared to regular diet.
as §4

Ctns KO mice liver = test: Liver cystine content in Ctns KO mice; format: in vivo; conditions: diet from 6-to-8 months-of-age
Procedure: In the second study to explore the effects of the D-lysine stereoisomer, Ctns KO mice received control vs 5x-D-lysine diet from 6-to-8 months-of-age. Mean kidney cystine value at 8 months-of-age under control diet was 109.4 ± 23.0 nmol hemi-cystine/mg kidney protein, slightly lower than in the first study.
as §5, with “The separation column was InfinityLab Poroshell 120 HILIC 1.9 μm 100 × 2.1 mm (Agilent Technologies). Validation of the method was performed basing on the US Food and Drug Administration (FDA) guideline for industry bioanalytical method validation (FDA 2013) and European Medicines Agency (EMA) guideline (EMA 2011).” left out

porcine megalin [6] = target: T1, porcine megalin; test: Surface plasmon resonance: competition for lysozyme binding to chip-immobilized megalin; conditions: 10 µg/ml lysozyme in 0 to 100 mM amino-acid
Procedure: as §1, §2, §3

[7] = Clinical urine and serum analyses in Ctns KO mice under 5x-dAA diets; conditions: Ctns KO mice at 8 months of age, 2 months of treatment, mean ± SEM
Excerpt: We also attempted to further discriminate between luminal (competition for surface megalin binding) and intracellular metabolic effects (see Discussion) by comparing the effects of 5x-L-lysine to its stereoisomer, 5x-D-lysine. Unless stated otherwise, diets were initiated at 6 months-of-age, and mice were studied then euthanized at 8 months-of-age (2-months treatment). This time frame was selected for two reasons. First, in the mouse cystinosis model, this an appropriate window to evaluate the impact on PTC alterations based on changes in kidney cystine accumulation and overall function. […] Second, although primary prevention by earlier intervention (from 2-to-6 months-of-age) better mimics perinatal genetic megalin ablation, thus could be more efficient, secondary intervention (starting at 6 months-of-age), when disease becomes clinically apparent, is more relevant for further translational studies.
as §4

[8] = IC50 for TC:B12/megalin interaction (mM; 95%CI)
[9] = Ctns KO mice at 8 months of age, 24-h urine, mean ± SEM
[10] = Ctns KO mice at 8 months of age, 2 months of treatment, urine, mean ± SEM
[11] = read-out: IC50 for TC:B12/megalin interaction (mM; 95%CI)

T1 sequence (C0HL13 26-4652): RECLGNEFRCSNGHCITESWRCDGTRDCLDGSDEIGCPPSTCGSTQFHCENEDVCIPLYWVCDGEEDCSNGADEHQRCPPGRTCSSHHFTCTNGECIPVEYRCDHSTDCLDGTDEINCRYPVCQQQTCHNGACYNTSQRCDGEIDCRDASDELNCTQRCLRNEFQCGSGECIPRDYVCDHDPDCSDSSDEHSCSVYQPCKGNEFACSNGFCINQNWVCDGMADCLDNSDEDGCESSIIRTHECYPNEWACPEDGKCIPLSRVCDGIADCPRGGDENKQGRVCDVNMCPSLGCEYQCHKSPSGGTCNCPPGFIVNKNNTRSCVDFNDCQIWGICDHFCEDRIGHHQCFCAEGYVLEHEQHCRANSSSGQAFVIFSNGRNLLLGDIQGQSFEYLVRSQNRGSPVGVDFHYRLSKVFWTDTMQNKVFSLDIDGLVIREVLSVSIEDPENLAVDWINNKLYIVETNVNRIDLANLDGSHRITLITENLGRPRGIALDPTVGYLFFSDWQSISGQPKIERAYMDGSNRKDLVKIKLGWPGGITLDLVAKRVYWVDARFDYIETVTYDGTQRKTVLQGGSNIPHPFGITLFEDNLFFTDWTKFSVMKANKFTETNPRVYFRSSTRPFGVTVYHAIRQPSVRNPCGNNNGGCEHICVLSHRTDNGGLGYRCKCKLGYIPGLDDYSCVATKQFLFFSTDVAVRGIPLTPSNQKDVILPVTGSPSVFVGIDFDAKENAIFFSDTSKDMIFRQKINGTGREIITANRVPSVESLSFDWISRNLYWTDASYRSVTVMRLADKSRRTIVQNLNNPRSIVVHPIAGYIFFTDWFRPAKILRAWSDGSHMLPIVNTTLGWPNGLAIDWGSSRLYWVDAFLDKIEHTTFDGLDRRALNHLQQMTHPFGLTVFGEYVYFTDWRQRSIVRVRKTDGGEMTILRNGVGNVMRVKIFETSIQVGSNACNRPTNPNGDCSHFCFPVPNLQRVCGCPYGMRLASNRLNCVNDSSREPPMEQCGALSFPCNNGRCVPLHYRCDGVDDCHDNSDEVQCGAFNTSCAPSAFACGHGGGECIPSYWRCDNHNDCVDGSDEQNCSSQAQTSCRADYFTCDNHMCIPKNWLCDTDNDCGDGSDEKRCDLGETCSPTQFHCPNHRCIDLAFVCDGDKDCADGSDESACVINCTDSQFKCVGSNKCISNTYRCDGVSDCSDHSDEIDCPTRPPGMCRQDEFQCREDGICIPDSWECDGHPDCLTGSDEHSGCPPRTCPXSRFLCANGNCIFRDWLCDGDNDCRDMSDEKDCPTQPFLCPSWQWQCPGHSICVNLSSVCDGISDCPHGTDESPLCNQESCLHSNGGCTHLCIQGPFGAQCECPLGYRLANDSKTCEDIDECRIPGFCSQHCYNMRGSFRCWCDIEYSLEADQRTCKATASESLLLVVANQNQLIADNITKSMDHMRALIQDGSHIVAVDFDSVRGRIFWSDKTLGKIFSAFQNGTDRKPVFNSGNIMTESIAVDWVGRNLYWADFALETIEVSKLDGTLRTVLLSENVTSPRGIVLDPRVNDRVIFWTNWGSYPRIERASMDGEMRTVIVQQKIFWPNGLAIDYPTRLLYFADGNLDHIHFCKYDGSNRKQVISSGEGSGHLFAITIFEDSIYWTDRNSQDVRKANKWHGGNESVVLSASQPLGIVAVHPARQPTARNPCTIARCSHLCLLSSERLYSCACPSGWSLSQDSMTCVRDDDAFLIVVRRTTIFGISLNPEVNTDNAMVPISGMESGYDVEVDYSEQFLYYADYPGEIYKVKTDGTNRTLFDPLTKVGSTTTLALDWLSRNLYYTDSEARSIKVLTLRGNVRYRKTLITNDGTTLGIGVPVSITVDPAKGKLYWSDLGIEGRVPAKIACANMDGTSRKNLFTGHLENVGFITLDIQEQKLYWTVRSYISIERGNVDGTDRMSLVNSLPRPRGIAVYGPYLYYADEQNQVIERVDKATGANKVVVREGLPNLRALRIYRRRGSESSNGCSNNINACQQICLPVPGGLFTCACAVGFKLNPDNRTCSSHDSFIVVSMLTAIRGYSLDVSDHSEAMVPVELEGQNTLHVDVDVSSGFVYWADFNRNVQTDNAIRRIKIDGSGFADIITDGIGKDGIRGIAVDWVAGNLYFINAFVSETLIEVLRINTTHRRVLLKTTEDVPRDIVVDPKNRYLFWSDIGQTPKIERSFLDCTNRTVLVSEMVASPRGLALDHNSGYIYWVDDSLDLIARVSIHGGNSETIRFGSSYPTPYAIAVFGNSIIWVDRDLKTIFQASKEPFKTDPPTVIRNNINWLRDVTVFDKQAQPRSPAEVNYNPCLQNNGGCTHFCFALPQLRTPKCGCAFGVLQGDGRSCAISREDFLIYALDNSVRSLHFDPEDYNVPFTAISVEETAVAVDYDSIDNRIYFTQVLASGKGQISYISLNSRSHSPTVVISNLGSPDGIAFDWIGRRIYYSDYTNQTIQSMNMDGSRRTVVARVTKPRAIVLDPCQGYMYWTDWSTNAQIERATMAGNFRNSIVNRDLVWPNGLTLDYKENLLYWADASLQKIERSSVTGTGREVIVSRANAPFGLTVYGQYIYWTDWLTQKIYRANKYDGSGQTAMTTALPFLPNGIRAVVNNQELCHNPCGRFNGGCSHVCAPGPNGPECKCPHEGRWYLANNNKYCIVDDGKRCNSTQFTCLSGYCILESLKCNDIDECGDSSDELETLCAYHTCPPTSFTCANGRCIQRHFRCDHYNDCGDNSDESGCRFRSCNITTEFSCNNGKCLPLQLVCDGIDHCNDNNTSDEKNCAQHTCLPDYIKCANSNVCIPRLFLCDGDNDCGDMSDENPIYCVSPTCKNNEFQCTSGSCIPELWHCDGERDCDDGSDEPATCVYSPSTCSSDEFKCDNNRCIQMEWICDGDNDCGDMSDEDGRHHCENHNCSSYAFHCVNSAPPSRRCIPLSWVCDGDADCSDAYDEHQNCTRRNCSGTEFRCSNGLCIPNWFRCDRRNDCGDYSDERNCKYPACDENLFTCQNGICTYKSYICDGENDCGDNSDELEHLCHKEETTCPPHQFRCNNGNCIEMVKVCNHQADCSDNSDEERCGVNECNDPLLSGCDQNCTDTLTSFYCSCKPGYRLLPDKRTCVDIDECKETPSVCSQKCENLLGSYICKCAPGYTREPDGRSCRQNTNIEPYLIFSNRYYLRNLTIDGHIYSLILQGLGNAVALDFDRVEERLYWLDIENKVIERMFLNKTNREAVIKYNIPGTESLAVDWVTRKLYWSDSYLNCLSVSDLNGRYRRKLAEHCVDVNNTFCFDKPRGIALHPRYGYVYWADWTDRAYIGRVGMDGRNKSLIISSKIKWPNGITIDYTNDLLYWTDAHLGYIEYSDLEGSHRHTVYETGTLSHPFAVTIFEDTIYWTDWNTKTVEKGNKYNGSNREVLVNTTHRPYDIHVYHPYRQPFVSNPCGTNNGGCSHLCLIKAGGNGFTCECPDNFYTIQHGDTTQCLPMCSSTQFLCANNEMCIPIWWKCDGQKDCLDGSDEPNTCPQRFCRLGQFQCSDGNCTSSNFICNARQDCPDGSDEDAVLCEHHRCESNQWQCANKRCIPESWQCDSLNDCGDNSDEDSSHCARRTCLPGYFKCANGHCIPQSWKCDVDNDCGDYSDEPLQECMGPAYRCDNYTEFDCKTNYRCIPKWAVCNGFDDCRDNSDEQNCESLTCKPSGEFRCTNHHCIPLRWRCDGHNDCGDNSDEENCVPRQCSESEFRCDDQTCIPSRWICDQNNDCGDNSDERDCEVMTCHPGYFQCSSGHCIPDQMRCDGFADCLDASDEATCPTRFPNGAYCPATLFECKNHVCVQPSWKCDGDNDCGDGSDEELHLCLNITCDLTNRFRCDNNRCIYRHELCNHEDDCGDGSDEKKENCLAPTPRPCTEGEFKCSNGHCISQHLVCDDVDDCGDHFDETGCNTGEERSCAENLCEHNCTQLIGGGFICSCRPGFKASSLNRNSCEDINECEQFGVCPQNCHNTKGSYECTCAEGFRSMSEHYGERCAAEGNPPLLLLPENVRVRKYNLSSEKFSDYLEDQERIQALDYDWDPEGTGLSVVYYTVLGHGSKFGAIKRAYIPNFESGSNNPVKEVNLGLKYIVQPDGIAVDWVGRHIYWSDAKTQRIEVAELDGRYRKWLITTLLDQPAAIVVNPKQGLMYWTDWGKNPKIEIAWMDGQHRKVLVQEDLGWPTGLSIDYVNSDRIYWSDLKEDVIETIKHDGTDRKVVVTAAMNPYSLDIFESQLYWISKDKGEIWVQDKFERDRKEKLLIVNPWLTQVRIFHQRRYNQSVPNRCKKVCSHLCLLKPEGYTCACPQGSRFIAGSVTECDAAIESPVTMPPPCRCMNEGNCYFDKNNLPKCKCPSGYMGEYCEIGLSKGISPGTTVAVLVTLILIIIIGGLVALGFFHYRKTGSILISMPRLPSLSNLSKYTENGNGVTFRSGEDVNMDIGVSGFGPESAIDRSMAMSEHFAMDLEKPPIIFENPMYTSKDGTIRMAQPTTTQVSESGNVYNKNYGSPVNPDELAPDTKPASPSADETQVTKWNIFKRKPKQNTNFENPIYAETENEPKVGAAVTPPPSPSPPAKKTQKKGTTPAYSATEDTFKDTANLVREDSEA

With `N=C(N)NCCC[C@H](N)C(=O)O` [arginine] the IC50 (porcine megalin [1]; [8]) was roughly 60 mM.

In the case of `NCCCC[C@H](N)C(=O)O` [lysine], the IC50 (porcine megalin [1]; [8]) is reported as roughly 25 mM.

In the case of `NCCCC[C@@H](N)C(=O)O` [5x-D-lysine, D-lysine], the “tolerance of prolonged diet” value [2] is reported as “strong polyuria but no weight loss”, the Urinary alanine [3, 9] is reported as 1097 ± 106.5 mM/M creatinine and the Urinary arginine [3, 9] is reported as 265 ± 27.5 mM/M creatinine. For the same compound, the Urinary cystine [3, 9] was 481.6 ± 32.8 mM/M creatinine, the Urinary glycine [3, 9] was 1066 ± 162 mM/M creatinine and the Urinary lysine [3, 9] was 123,851 ± 8548 mM/M creatinine. For the same compound, the “urinary lysine concentration reached” value ([3]; Ctns KO mice, daily urine collections) was ~ 150 mM, the increase of argininuria ([3]; Ctns KO mice, vs control diet) was 12 fold and the increase of cystinuria ([3]; Ctns KO mice, vs control diet) was 7 fold. For the same compound, the increase of lysinuria ([3]; Ctns KO mice, vs control diet) was 2200 fold, the “mean kidney cystine at 8 months-of-age” value (Ctns KO mice kidneys; Ctns KO female mice) was 44.6 ± 10.8 nmol hemi-cystine/mg kidney protein and the “kidney cystine accumulation during the treatment period” value (Ctns KO mice kidneys; Ctns KO mice) was “probably fully arrested”. For the same compound, the “increase of microalbuminuria vs control diet” value (megalin pathway [4]; Ctns KO female mice, diet from 6-to-8 months of age) was “> twofold”, the “Urine CC16/creatinine” value (megalin pathway [4]; [10]) was 18,257 ± 1488 μg/g and the Urine microalbumin/creatinine (megalin pathway [4]; [10]) was 0.5 ± 0.2 (n = 8) mg/g. The “increase of urinary excretion of CC16 (normalized for creatinine excretion)” value (megalin pathway [5]) was 20 fold, the IC50 (porcine megalin [1]; [11]) was 22 mM and the “SPR signal of amino-acid alone on megalin chip” value (“SPR signal of amino-acid alone” for short) (porcine megalin [1]) was “no signal was detected”. For the same compound, the “liver cystine level at 8 months-of-age” value (Ctns KO mice liver) was “did not affect”, the “effect on megalin binding of lysozyme” value (porcine megalin [6]) was “concentration-dependent decrease” and the Body weight [7] was 22.4 ± 0.3 g. For the same compound, the Serum creatinine ([7]; serum) was 0.8 ± 0.1 mg/dL, the “Serum cystatin-C” value ([7]; serum) was 723.3 ± 32.7 ng/mL and the Serum glucose ([7]; serum) was 172.4 ± 7.9 mg/dL. It also gave a Serum phosphate ([7]; serum) of 9.5 ± 0.4 mg/dL, a Serum urea ([7]; serum) of 43.2 ± 2.0 mg/dL and a Daily creatinine output ([7]; urine) of 0.7 ± 0.1 mg/day. It also gave a Diuresis ([7]; urine) of 5.3 ± 0.8 mL/day, a Urine creatinine ([7]; urine) of 13.4 ± 1.2 mg/dL and a Urine glucose/creatinine ([7]; urine) of 54.4 ± 4.5 g/g. For the same compound, the Urine phosphate/creatinine ([7]; urine) was 4.8 ± 0.4 g/g and the Urine urea/creatinine ([7]; urine) was 181.8 ± 11.6 g/g.

For `NCC(=O)O` [glycine], the “SPR signal of amino-acid alone” value (porcine megalin [1]) was “no signal was detected”, the “effect on megalin:TC:B12 interaction” value (porcine megalin [1]; up to 100 mM) was “No detectable effect” and the “effect on megalin binding of lysozyme” value (porcine megalin [6]) was “No detectable effect”.

For `NC(N)=NCCC[C@@H](N)C(=O)O` [5x-D-arginine, D-arginine], the “tolerance of prolonged diet” value [2] was “weight loss and eventual high mortality”, the IC50 (porcine megalin [1]; [11]) was 60 mM and the “SPR signal of amino-acid alone” value (porcine megalin [1]) was “no signal was detected”. The “effect on megalin binding of lysozyme” value (porcine megalin [6]) was “concentration-dependent decrease”.

From article PMC10570359, “Dietary supplementation of cystinotic mice by lysine inhibits the megalin pathway and decreases kidney cystine content” (Scientific Reports, 2023)
